28 molecules from ChEMBL document CHEMBL1158509, “Novel selective thiazoleacetic acids as CRTH2 antagonists developed from in silico derived hits. Part 2” (Bioorg Med Chem Lett, 2010) can be followed below.

≈ marks a conversion by molar mass, not a printed value.

The target of series [1] is T1, Prostaglandin D2 receptor 2 (Homo sapiens, UniProt Q9Y5Y4).
T1 sequence (Q9Y5Y4 whole entry): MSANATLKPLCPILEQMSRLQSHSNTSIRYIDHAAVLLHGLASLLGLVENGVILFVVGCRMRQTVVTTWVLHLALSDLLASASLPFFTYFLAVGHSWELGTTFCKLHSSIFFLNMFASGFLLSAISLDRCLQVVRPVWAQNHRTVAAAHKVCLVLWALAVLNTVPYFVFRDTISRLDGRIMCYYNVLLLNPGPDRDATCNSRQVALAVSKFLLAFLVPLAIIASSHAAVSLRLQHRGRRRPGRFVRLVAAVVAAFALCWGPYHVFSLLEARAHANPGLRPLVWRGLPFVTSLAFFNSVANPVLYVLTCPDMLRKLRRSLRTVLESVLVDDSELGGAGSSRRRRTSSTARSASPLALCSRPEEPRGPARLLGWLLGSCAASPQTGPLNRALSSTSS
Briefly: Antagonist activity at human CRTH2 receptor expressed in […] cells assessed as inhibition of beta arrestin translocation by bioluminescence resonance energy transfer assay. It counts as functional, cell-based.

Series [2] deals with T1, Prostaglandin D2 receptor 2. Briefly: Displacement of[3H]PGD2 from human CRTH2 receptor expressed in african green monkey COS7 cells. It counts as cell-based, COS-7.
In series [3] the target is T2, Prostaglandin D2 receptor 2 (Homo sapiens) (UniProt Q9Y5Y4).
T2 sequence (whole entry): T1 sequence (Q9Y5Y4 whole entry)
As to the kind of experiment: Antagonist activity at human CRTH2 receptor expressed in […] cells assessed as inhibition of beta arrestin translocation by bioluminescence resonance energy transfer assay relative to control. It counts as functional, cell-based.

Series [4] is described as follows: Bioavailability in rat. It is filed as ADME, organism-based. Conditions: in vivo.
A short description of series [5]: Clearance in rat. It counts as ADME, organism-based. The following applies: in vivo.
Series [6] is described as follows: Metabolic stability in human liver S9 fraction assessed as compound remaining. It counts as ADME, subcellular.
For another series, the target named is CYP2D6 (Homo sapiens, UniProt P10635). Briefly: Inhibition of CYP2D6 at 1 uM. It is filed as ADME.
Series [7] in a line: Octanol-water distribution coefficient, log D at pH 7.4. It is filed as physicochemical.
A short description of series [8]: Aqueous solubility at pH 1. It counts as physicochemical.
The target of a further series is CYP3A4 (Homo sapiens, UniProt P08684). Briefly: Inhibition of CYP3A4 at 1 uM. It counts as ADME.
For series [9], the target named is T1, Prostaglandin D2 receptor 2. As to the kind of experiment: Displacement of[3H]PGD2 from human CRTH2 receptor expressed in […] cells. It is filed as cell-based.
Series [10] in a line: Metabolic stability in rat liver S9 fraction assessed as compound remaining. It is filed as ADME, subcellular.
A short description of series [11]: Half life in rat. It counts as ADME, organism-based. Conditions: in vivo.

Sequence of CYP3A4 (P08684 whole entry): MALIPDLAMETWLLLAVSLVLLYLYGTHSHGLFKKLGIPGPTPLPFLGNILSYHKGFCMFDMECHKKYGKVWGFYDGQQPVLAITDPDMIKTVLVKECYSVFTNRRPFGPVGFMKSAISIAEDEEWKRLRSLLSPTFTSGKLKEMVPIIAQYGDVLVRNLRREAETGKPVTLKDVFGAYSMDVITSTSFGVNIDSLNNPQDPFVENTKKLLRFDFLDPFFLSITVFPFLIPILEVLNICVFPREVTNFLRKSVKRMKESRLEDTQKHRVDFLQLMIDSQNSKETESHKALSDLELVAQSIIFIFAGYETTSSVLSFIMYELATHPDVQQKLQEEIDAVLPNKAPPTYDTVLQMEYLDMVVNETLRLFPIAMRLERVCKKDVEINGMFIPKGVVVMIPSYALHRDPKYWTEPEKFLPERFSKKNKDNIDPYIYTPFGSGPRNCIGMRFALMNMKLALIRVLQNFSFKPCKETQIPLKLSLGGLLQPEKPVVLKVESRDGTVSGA
Sequence of CYP2D6 (P10635 whole entry): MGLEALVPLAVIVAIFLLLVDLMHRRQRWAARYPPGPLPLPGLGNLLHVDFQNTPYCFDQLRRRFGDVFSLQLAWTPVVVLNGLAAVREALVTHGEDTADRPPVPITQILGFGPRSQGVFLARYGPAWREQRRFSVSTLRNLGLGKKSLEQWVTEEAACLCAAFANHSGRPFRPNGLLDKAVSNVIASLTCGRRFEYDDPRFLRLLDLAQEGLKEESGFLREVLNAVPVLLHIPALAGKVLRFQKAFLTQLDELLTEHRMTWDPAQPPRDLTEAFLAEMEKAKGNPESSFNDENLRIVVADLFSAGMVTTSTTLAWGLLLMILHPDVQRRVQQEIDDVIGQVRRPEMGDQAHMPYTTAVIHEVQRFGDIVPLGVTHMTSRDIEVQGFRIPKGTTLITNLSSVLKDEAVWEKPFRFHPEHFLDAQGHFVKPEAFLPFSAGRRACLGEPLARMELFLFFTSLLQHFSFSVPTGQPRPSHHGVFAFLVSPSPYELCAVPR

Regarding `O=C(O)Cc1sc(-c2ccco2)nc1-c1ccc(Cl)cc1`, the half-maximal inhibitory concentration (IC50) in series [1] was determined as 3800 nM; in series [2], 550 nM. The Efficacy in [3] was 50%.

In the case of `COc1ccc(C(c2ccccc2)c2nc(-c3ccc(F)cc3)c(CC(=O)O)s2)cc1` (stereo not drawn), the bioavailability in series [4] turned out to be 81%. Moreover, the values for the IC50 in series [1] and in series [9] were 31 nM and 3.6 nM, respectively. The same molecule had a clearance in [5] of 70 mL/min/kg. The Stability in series [6] was 3.3%; in series [10], 0%. Also, the inhibition at 1 µM came to 5.8% on CYP2D6 and 4.4% against CYP3A4. The logD in series [7] worked out at 3. In [8], the solubility is 40 µM (≈ 17.3 µg/mL). Besides, the Efficacy in series [3] is 80%. Further, the half-life in series [11] was 8.5 h.

Turning to `CS(=O)(=O)c1cccc(-c2nc(C(c3ccc(F)cc3)c3ccc(F)cc3)sc2CC(=O)O)c1`, the IC50 in series [1] was 6300 nM; in series [9], 590 nM. Further, the Efficacy in series [3] stood at 30%.

Turning to `O=C(O)Cc1sc(C(c2ccc(F)cc2)c2ccc(F)cc2)nc1-c1ccnc(F)c1`, the results for the IC50 in series [1] and in series [9] were 4.7 nM and 0.48 nM, respectively. Further, the Efficacy in [3] turned out to be 80%.

Consider `Cc1nc(-c2ccc(Cl)cc2)c(CC(=O)O)s1`, for which the IC50 is 41000 nM in [1] and 5500 nM in [2]. Also, the Efficacy in [3] worked out at 50%.

On to `O=C(O)Cc1sc(NC(=O)c2ccccc2)nc1-c1ccc(Cl)cc1`, for which the IC50 amounted to 870 nM in series [1] and 520 nM in [9]. Also, in series [3], the Efficacy was 50%.

As to `O=C(O)Cc1sc(C(c2ccccc2)c2ccc(Cl)cc2)nc1-c1ccc(Cl)cc1` (stereo not drawn), the values for the IC50 in [1] and in [9] were 75 nM and 45 nM, respectively. Besides, in [3], the Efficacy was determined as 80%.

As to `CCC(c1ccccc1)c1nc(-c2ccc(Cl)cc2)c(CC(=O)O)s1` (stereo not drawn), the results for the IC50 in series [1] and in series [9] were above 100000 nM and 190 nM, respectively. Further, the Efficacy in series [3] was determined as 50%.

Regarding `O=C(O)Cc1sc(NCCc2ccccc2)nc1-c1ccc(Cl)cc1`, the IC50 in series [1] was found to be 390 nM; in [9], 650 nM. Moreover, the Efficacy in [3] was 50%.

Turning to `O=C(O)Cc1sc(C(c2ccc(F)cc2)c2ccc(F)cc2)nc1-c1cn[nH]c1`, the half-maximal inhibitory concentration (IC50) in [1] was found to be 220 nM; in series [9], 16 nM. In addition, the Efficacy in series [3] worked out at 80%.

In the case of `O=C(O)Cc1sc(C(c2ccccc2)c2ccccc2)nc1-c1ccc(F)c(F)c1`, the values for the IC50 in series [1] and in series [9] were 43 nM and 4.1 nM, respectively. Besides, the Efficacy in series [3] was determined as 80%.

As for `O=C(O)Cc1sc(C(c2ccccc2)c2cccc(Cl)n2)nc1-c1ccc(Cl)cc1` (stereo not drawn), the IC50 in [1] was above 100000 nM; in series [9] it was 3200 nM. Besides, in [3], the Efficacy was 80%.

As for `CS(=O)(=O)Nc1cccc(-c2nc(C(c3ccc(F)cc3)c3ccc(F)cc3)sc2CC(=O)O)c1`, the IC50 in series [1] is 370 nM; in [9], 40 nM. The Efficacy in series [3] is 80%.

Regarding `O=C(O)Cc1sc(C(c2ccc(F)cc2)c2ccc(F)cc2)nc1-c1cccc(F)c1`, the IC50 came to 18 nM in series [1] and 1.4 nM in series [9]. Further, the Efficacy in series [3] was determined as 80%.

Regarding `Cc1cc(-c2nc(C(c3ccc(F)cc3)c3ccc(F)cc3)sc2CC(=O)O)cnc1N`, the IC50 was above 100000 nM in series [1] and 880 nM in series [9]. Also, in series [3], the Efficacy turned out to be 80%.

Consider `O=C(O)Cc1sc(Nc2cccc3ccccc23)nc1-c1ccc(Cl)cc1`, for which the IC50 amounted to 96 nM in series [1] and 150 nM in [9]. In addition, in series [3], the Efficacy stood at 50%.

On to `O=C(O)Cc1sc(C(c2ccc(F)cc2)c2ccc(F)cc2)nc1-c1ccc(F)c(F)c1`, for which the IC50 in series [1] turned out to be 41 nM; in series [9] it was 3.5 nM. In addition, the Efficacy in series [3] worked out at 80%.

For the molecule `O=C(O)Cc1sc(CSc2ccccc2)nc1-c1ccc(Cl)cc1`, the figures for the IC50 in [1] and in [9] were 450 nM and 250 nM, respectively. Besides, the Efficacy in series [3] worked out at 50%.

On to `O=C(O)Cc1sc(C(c2ccc(F)cc2)c2ccc(F)cc2)nc1-c1ccnc(Cl)c1`, for which the IC50 in series [1] is 39 nM; in [9] it was 3.1 nM. The Efficacy in series [3] is 80%.

Take `O=C(O)Cc1sc(C(c2ccc(F)cc2)c2ccc(F)cc2)nc1-c1ccncc1`: the IC50 turned out to be 40 nM in series [1] and 5.3 nM in [9]. Moreover, the Efficacy in [3] worked out at 80%.

Take `Nc1cc(-c2nc(C(c3ccc(F)cc3)c3ccc(F)cc3)sc2CC(=O)O)cc(F)n1`: the IC50 in series [1] was determined as 1400 nM; in series [9], 220 nM. The Efficacy in [3] is 30%.

Take `N#Cc1cc(-c2nc(C(c3ccc(F)cc3)c3ccc(F)cc3)sc2CC(=O)O)ccc1F`: the IC50 in series [1] was 520 nM; in series [9], 57 nM. Moreover, the Efficacy in series [3] was found to be 80%.

`Cn1cc(-c2nc(C(c3ccc(F)cc3)c3ccc(F)cc3)sc2CC(=O)O)cn1`: the IC50 in series [1] worked out at 3500 nM; in series [9], 1300 nM. Besides, the Efficacy in [3] is 80%.

For `COc1ccc(C(c2ccccn2)c2nc(-c3ccc(Cl)cc3)c(CC(=O)O)s2)cc1` (stereo not drawn), the IC50 in [1] came out at 310 nM; in [9] it was 61 nM. Moreover, in series [3], the Efficacy amounted to 80%.

As for `CC(=O)N1CCC(c2ccccc2)(c2nc(-c3ccc(Cl)cc3)c(CC(=O)O)s2)CC1`, the IC50 in series [1] was determined as 550 nM; in series [9], 52 nM. Moreover, the Efficacy in series [3] came out at 50%.

Turning to `NS(=O)(=O)c1cccc(-c2nc(C(c3ccc(F)cc3)c3ccc(F)cc3)sc2CC(=O)O)c1`, the IC50 in series [1] turned out to be 710 nM; in [9], 140 nM. The Efficacy in series [3] came out at 55%.

`COc1ccc(C(c2ccccc2)c2nc(-c3ccc(Cl)cc3)c(CC(=O)O)s2)cc1` (stereo not drawn): the IC50 was found to be 76 nM in [1] and 8.4 nM in [9]. The Efficacy in [3] was determined as 80%.

As to `Nc1ccc(-c2nc(C(c3ccc(F)cc3)c3ccc(F)cc3)sc2CC(=O)O)cn1`, the figures for the IC50 in series [1] and in series [9] were 500 nM and 100 nM, respectively. Further, the Efficacy in [3] was determined as 60%.

The IC50 is the concentration that inhibits the measured activity by half. In general, bioavailability refers to the share of a dose that reaches the circulation, judged against a reference dose that is usually intravenous. As a reminder, the clearance is the rate of elimination divided by the concentration. In general, inhibition refers to the drop in the measured response relative to a control, in per cent. For orientation: logD means lipophilicity at a set pH, counting ionised and neutral species. One may read the solubility as how much of the substance goes into solution per volume. What is called half-life is the time in which the quantity being followed falls by half.
